Measurements: PubChem BioAssay (NCI)
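Each compound was tested at five concentrations against cells in 96-well plates for 48 hours. GI50 marks 50% less growth. TGI marks complete inhibition of growth.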

Assays:
Test in all cases: NCI tumour cell line growth inhibition, 48 h
M14 melanoma = test system: M14 melanoma
U251 CNS = test system: U251 CNS
T-47D breast = test system: T-47D breast
CCRF-CEM leukemia = test system: CCRF-CEM leukemia
NCI-H460 lung = test system: NCI-H460 lung
MOLT-4 leukemia = test system: MOLT-4 leukemia
MDA-MB-435 = test system: MDA-MB-435
PC-3 prostate = test system: PC-3 prostate
SK-MEL-28 melanoma = test system: SK-MEL-28 melanoma
SW-620 colon = test system: SW-620 colon
KM12 colon = test system: KM12 colon
CAKI-1 renal = test system: CAKI-1 renal
HS 578T breast = test system: HS 578T breast

| Compound | TGI (M14 melanoma) [µM] | TGI (U251 CNS) [µM] | TGI (T-47D breast) [µM] | TGI (CCRF-CEM leukemia) [µM] | TGI (NCI-H460 lung) [µM] | TGI (MOLT-4 leukemia) [µM] | TGI (MDA-MB-435) [µM] | TGI (PC-3 prostate) [µM] | TGI (SK-MEL-28 melanoma) [µM] | TGI (SW-620 colon) [µM] | TGI (KM12 colon) [µM] | TGI (CAKI-1 renal) [µM] | TGI (HS 578T breast) [µM] | GI50 (NCI-H460 lung) [µM] | GI50 (MDA-MB-435) [µM] | GI50 (PC-3 prostate) [µM] | GI50 (KM12 colon) [µM] |
| --- | --- | --- | --- | --- | --- | --- | --- | --- | --- | --- | --- | --- | --- | --- | --- | --- | --- |
| CCOC(=O)c1c(N=P(c2ccccc2)(c2ccccc2)c2ccccc2)nnc(-c2ccccc2)c1-c1ccccc1 | > 100 | > 100 | > 100 | > 100 | > 100 | > 100 | > 100 | > 100 | > 100 | > 100 | > 100 | – | – | – | – | – | – |
| CC1(C)OC2[C@@H](CO[C@@]3([C@@H](O)CCO)OC(C)(C)O[C@@H]23)O1 (stereo partly specified) | > 100 | > 100 | > 100 | > 100 | > 100 | > 100 | > 100 | > 100 | > 100 | > 100 | > 100 | > 100 | – | – | – | – | – |
| COc1ccc(C(=O)O[C@H]2[C@@H]3C=CO[C@@H](OC4OC(CO)C(O)C(O)C4O)[C@@H]3[C@@]3(CO)O[C@@H]23)cc1O (stereo partly specified) | > 100 | > 100 | – | > 100 | > 100 | > 100 | – | – | > 100 | > 100 | > 100 | > 100 | – | – | – | – | – |
| COC(CN(C(C)=O)C1CCC2(SCCS2)c2[nH]c3ccccc3c21)OC (stereo unspecified) | > 100 | > 100 | – | > 100 | > 100 | > 100 | > 100 | > 100 | > 100 | > 100 | > 100 | > 100 | > 100 | – | – | – | – |
| c1ccc(C(NCC2CCO2)(c2ccccc2)c2ccccc2)cc1 (stereo unspecified) | 32.1 | 54 | – | > 100 | 33.9 | > 100 | 46 | 31.6 | > 100 | 44.4 | 28.8 | 55.2 | – | – | – | – | – |
| O=C1/C(=C\c2cccc(Oc3ccccc3)c2)SC(c2ccccc2)N1c1ccccc1 (stereo unspecified) | > 100 | > 100 | > 100 | 86.4 | > 100 | > 100 | > 100 | – | > 100 | > 100 | > 100 | > 100 | > 100 | – | – | – | – |
| CN(C)CCNC(=O)c1ccc(NCCCN(C)CCCNc2ccc(C(=O)NCCN(C)C)c3[nH]c4ccccc4c(=O)c23)c2c(=O)c3ccccc3[nH]c12 | 1.46 | 0.247 | 1.85 | 0.406 | 0.12 | 1.09 | 0.194 | 0.331 | 1.23 | – | 0.627 | 2.59 | – | – | – | – | – |
| CCOc1ccc2[nH]c3c(C)c4ccncc4c(C)c3c2c1 | 2.9 | 2.16 | – | > 100 | 1.68 | – | – | – | 3.61 | 1.75 | 2.22 | 3.06 | – | – | – | – | – |
| CCC1(N=[N+]=[N-])C(=O)c2ccccc2N(C)C1=O (stereo unspecified) | > 100 | > 100 | – | > 100 | > 100 | > 100 | – | – | > 100 | > 100 | > 100 | > 100 | – | – | – | – | – |
| O=S(=O)(O)c1cc(N=Nc2c(O)ccc3ccccc23)ccc1/C=C/c1ccc(N=Nc2c(O)ccc3ccccc23)cc1S(=O)(=O)O | > 100 | > 100 | > 100 | – | – | – | > 100 | > 100 | > 100 | > 100 | > 100 | > 100 | > 100 | – | – | – | – |
| Cc1ccc(NC=O)c(-c2c(N)[nH]c(=S)[nH]c2=O)c1 | > 100 | – | > 100 | > 100 | – | > 100 | > 100 | – | – | > 100 | > 100 | > 100 | > 100 | – | – | – | – |
| c1cc2c(s1)-c1sccc1C21OCCO1 | > 100 | > 100 | 80.9 | > 100 | > 100 | > 100 | > 100 | – | > 100 | – | > 100 | > 100 | – | – | – | – | – |
| C=C1C(=O)O[C@H]2C[C@@]3(COC(C)=O)C=COC=C(COC(=O)C(C)C)C3CC12 (stereo partly specified) | – | > 100 | – | 63.8 | > 100 | > 100 | > 100 | > 100 | > 100 | > 100 | > 100 | > 100 | > 100 | – | – | – | – |
| CC(=O)OC12C3C4C1C1C2C3C41OC(C)=O (stereo unspecified) | > 100 | > 100 | > 100 | > 100 | > 100 | > 100 | > 100 | > 100 | > 100 | > 100 | > 100 | > 100 | – | – | – | – | – |
| Cc1nc(CC#N)n[nH]1 | > 100 | > 100 | – | > 100 | – | > 100 | > 100 | > 100 | – | > 100 | > 100 | – | – | – | – | – | – |
| O=C(O)CCC(=O)c1ccc2c(c1)C(C(=O)O)CC2 (stereo unspecified) | > 100 | > 100 | > 100 | – | > 100 | > 100 | > 100 | > 100 | > 100 | > 100 | > 100 | – | > 100 | – | – | – | – |

| Compound | TGI (M14 melanoma) [µM] | TGI (U251 CNS) [µM] | TGI (T-47D breast) [µM] | TGI (CCRF-CEM leukemia) [µM] | TGI (NCI-H460 lung) [µM] | TGI (MOLT-4 leukemia) [µM] | TGI (MDA-MB-435) [µM] | TGI (PC-3 prostate) [µM] | TGI (SK-MEL-28 melanoma) [µM] | TGI (SW-620 colon) [µM] | TGI (KM12 colon) [µM] | TGI (CAKI-1 renal) [µM] | TGI (HS 578T breast) [µM] | GI50 (NCI-H460 lung) [µM] | GI50 (MDA-MB-435) [µM] | GI50 (PC-3 prostate) [µM] | GI50 (KM12 colon) [µM] |
| --- | --- | --- | --- | --- | --- | --- | --- | --- | --- | --- | --- | --- | --- | --- | --- | --- | --- |
| CS(=O)(=O)c1nc(-c2cc3c(c(S(C)(=O)=O)n2)CCCC3)cc2c1CCCCC2 | > 100 | > 100 | – | > 100 | – | – | > 100 | > 100 | > 100 | > 100 | > 100 | > 100 | – | – | – | – | – |
| CCOC(=O)c1[nH]c(Br)c(-c2ccc(OC)c(OC)c2)c1Br | 16 | 1.44 | 72.5 | – | > 100 | 8.59 | 0.00973 | 23.7 | 20.3 | 38.1 | – | – | – | 19.2 | 0.00279 | 0.0112 | 0.0172 |
| Cc1c2ccncc2cc2c1[nH]c1ccccc12 | – | 7.65 | – | 15 | 5.77 | 6.59 | – | – | 5.91 | 4.68 | 23.9 | 10.5 | – | – | – | – | – |
| COC(=O)CCC1=C(CC(=O)OC)C(C)(OC)N=C1NC(=O)OCc1ccccc1 (stereo unspecified) | > 100 | > 100 | > 100 | > 100 | > 100 | > 100 | > 100 | > 100 | > 100 | > 100 | > 100 | > 100 | – | – | – | – | – |
| NC1=C(NC(=O)Cc2ccccc2F)C(=O)c2ccccc2C1=O | > 100 | > 100 | – | > 100 | > 100 | > 100 | – | – | > 100 | > 100 | > 100 | > 100 | – | – | – | – | – |
| O=CNNC(=O)Nc1cccc2ccccc12 | > 100 | > 100 | > 100 | > 100 | > 100 | > 100 | > 100 | – | > 100 | > 100 | > 100 | – | > 100 | – | – | – | – |
| [N-]=[N+]=NC(c1cn(C2CC(O)C(CO)O2)c(=O)[nH]c1=O)C(Br)Br (stereo unspecified) | > 100 | > 100 | – | > 100 | > 100 | > 100 | – | – | > 100 | > 100 | > 100 | > 100 | – | – | – | – | – |
| N#CN/C(N)=N/C/N=C(\N)NC#N | > 100 | > 100 | – | > 100 | > 100 | > 100 | – | – | > 100 | 36 | > 100 | > 100 | – | – | – | – | – |
| COc1ccc(C(c2c(O)c3ccccc3n(-c3ccccc3)c2=O)c2c(O)c3ccccc3n(-c3ccccc3)c2=O)cc1 | – | > 100 | – | > 100 | – | > 100 | – | – | > 100 | > 100 | > 100 | > 100 | – | – | – | – | – |
| O=c1cc(CO)oc2c3c(cc(O)c12)OCC(COC1OC(CO)C(O)C(O)C1O)=CC3 (stereo unspecified) | > 100 | > 100 | – | > 100 | > 100 | > 100 | – | – | > 100 | > 100 | > 100 | > 100 | – | – | – | – | – |
| CN(C(=O)C12C3C4C5C3C1(C(=O)C13C6C7C8C6C1C8C73)C5C42)C(C)(C)C (stereo unspecified) | > 50 | > 50 | – | > 37.9 | > 50 | > 50 | – | – | > 50 | > 34 | > 50 | > 50 | – | – | – | – | – |
| Cc1cnc2sn(-c3ccc([N+](=O)[O-])cc3)c(=O)c2c1 | > 100 | > 100 | > 100 | – | > 100 | > 100 | > 100 | > 100 | > 100 | > 100 | > 100 | – | > 100 | – | – | – | – |
| C/C=C(/I)CBr | 28.7 | – | – | 23.4 | 37.4 | 55.9 | – | – | 52.6 | 36.6 | – | 2.85 | – | – | – | – | – |
| COc1ccc(N=NC(C(=O)c2ccccc2)C(=O)c2ccccc2)cc1 | 33.4 | > 100 | – | 58.2 | 68.4 | 72.2 | – | – | > 100 | > 100 | > 100 | > 100 | – | – | – | – | – |
| O=C(NCCN1CCOCC1)c1cn2c(ccc3sc4ccccc4c(=O)c32)n1 | – | 21.6 | – | – | 18.3 | > 100 | > 100 | > 100 | > 100 | 25.3 | > 100 | > 100 | 47.3 | – | – | – | – |
| NC(=S)/N=C(/c1nc2ccc(Cl)cc2[nH]c1=O)C(O)c1ccccc1Cl (stereo unspecified) | > 100 | > 100 | – | > 100 | > 100 | > 100 | – | – | > 100 | > 100 | > 100 | – | – | – | – | – | – |
